Test results from ChEMBL document CHEMBL1159163, “Amselamine, a new selective histamine H2-receptor agonist” (Bioorg Med Chem Lett, 1994).

Assays:
[1] = target: Histamine H2 receptor (Rattus norvegicus, UniProt P25102); experiment: Affinity to the Histamine H2 receptor was determined expressed in CHO cell using [125I]iodoaminopotentidine as radioligand; assay type: cell-based
[2] = target: Histamine H1 receptor (Cavia porcellus, UniProt P31389); experiment: Tested for affinity towards H1 receptor in guinea pig ileum; assay type: tissue-based; details: read-out: pA2 (converted)
Sequence of Histamine H1 receptor (P31389 whole entry): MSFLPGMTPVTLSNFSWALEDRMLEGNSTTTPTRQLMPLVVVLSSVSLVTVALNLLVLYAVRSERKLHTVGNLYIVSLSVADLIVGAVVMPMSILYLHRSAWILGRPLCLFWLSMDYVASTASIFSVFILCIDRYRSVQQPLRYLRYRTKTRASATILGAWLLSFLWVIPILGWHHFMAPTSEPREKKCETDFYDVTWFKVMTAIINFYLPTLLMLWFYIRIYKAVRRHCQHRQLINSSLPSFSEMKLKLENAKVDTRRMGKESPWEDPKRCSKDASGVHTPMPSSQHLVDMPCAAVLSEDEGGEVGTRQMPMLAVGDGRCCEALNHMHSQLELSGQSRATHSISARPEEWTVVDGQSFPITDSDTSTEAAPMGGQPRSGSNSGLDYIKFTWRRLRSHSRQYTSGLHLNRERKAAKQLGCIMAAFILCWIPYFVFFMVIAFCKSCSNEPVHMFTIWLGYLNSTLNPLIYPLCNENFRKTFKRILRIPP

[3] = target: Histamine H2 receptor (Cavia porcellus) (UniProt P47747); experiment: Histamine H2 receptor activity was determined on the isolated spontaneously beating guinea pig right atrium; assay type: tissue-based; details: Cardiac atrium
Sequence of Histamine H2 receptor (Cavia porcellus) (P47747 whole entry): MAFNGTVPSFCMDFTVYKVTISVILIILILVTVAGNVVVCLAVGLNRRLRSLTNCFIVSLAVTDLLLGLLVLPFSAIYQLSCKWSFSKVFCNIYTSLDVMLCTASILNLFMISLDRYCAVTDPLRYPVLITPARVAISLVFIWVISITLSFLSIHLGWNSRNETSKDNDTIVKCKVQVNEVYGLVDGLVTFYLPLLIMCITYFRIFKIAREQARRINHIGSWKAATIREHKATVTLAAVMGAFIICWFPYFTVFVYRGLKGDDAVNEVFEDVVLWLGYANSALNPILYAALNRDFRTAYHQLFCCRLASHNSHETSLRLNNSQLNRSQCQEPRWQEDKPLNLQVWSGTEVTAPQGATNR

[4] = pKa2 (heterocyclic ring); assay type: physicochemical; details: read-out: pKa2
[5] = pKa1 (aliphatic amine); assay type: physicochemical; details: read-out: pKa1
[6] = target: Histamine H3 receptor (Cavia porcellus) (UniProt Q9JI35); experiment: Tested for affinity towards Histamine H3 receptor in electrically stimulated guinea pig jejunum; assay type: tissue-based
Sequence of Histamine H3 receptor (Cavia porcellus) (Q9JI35 whole entry): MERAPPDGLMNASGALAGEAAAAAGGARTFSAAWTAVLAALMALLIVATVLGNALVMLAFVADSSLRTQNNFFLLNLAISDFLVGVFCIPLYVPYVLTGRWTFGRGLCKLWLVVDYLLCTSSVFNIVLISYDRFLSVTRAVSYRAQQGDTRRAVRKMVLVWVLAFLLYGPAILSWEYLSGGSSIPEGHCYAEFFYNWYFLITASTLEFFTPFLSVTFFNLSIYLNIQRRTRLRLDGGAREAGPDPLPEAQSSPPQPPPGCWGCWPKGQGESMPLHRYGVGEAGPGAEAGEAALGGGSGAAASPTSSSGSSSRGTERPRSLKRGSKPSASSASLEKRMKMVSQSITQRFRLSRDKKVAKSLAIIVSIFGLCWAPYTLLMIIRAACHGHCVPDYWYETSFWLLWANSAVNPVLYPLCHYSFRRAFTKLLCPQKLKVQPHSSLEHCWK

Sequence of Histamine H2 receptor (P25102 whole entry): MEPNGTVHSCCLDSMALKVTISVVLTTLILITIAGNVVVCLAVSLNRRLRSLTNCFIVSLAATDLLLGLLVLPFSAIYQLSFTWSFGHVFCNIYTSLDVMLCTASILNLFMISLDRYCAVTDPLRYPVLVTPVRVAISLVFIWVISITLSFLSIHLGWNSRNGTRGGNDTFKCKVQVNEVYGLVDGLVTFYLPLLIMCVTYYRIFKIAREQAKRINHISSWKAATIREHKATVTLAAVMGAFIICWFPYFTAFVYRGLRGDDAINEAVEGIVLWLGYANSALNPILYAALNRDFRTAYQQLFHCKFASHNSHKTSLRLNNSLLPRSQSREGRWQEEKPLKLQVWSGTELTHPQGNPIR

In the case of Cc1nc(N)[se]c1CCN, the Kd [1] is reported as 9.77 µM, the Kb [2] is reported as 141 µM and the pD2 [3] is reported as 6.41. The pKa [4] was 5.78, the pKa [5] was 9.21 and the pD2 [6] was 4.44.

NCCc1c[nH]cn1 [HISTAMINE] gave a Kd [1] of 117 µM, a pKa [4] of 5.93 and a pKa [5] of 9.32.

In the case of Cc1nc(N)sc1CCN [AMTHAMINE], the Kd [1] is reported as 11.5 µM, the pKa [4] is reported as 5.4 and the pKa [5] is reported as 9.15.
